Test results: PubChem BioAssay (NCI)
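Interpolation was linear, between the two tested concentrations surrounding the appropriate level; five concentrations were tested over 48 hours in 96-well plates. The concentration for 50% growth inhibition is given as GI50. At the TGI there is no net growth.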

What was measured:
Test in all cases: DTP human tumour cell line panel, 48 h
UACC-62 melanoma = test system: UACC-62 melanoma
TK-10 renal = test system: TK-10 renal
SK-OV-3 ovarian = test system: SK-OV-3 ovarian
SF-268 CNS = test system: SF-268 CNS
U251 CNS = test system: U251 CNS
ACHN renal = test system: ACHN renal
MALME-3M melanoma = test system: MALME-3M melanoma
OVCAR-3 ovarian = test system: OVCAR-3 ovarian
SW-620 colon = test system: SW-620 colon
NCI-H460 lung = test system: NCI-H460 lung
HOP-92 NSCLC = test system: HOP-92 NSCLC

Row | Structure (SMILES) | TGI (UACC-62 melanoma) | TGI (TK-10 renal) | TGI (SK-OV-3 ovarian) | TGI (SF-268 CNS) | TGI (U251 CNS) | TGI (ACHN renal) | TGI (MALME-3M melanoma) | TGI (OVCAR-3 ovarian) | TGI (SW-620 colon) | TGI (NCI-H460 lung) | TGI (HOP-92 NSCLC) | GI50 (UACC-62 melanoma) | GI50 (TK-10 renal) | GI50 (HOP-92 NSCLC) | GI50 (SK-OV-3 ovarian) | GI50 (SF-268 CNS) | GI50 (U251 CNS) | GI50 (OVCAR-3 ovarian) | GI50 (SW-620 colon)
1 | CCO/C(O)=C(/C(=N)N1CCCC1)C(=O)Nc1ccc(Cl)cc1 | > 100 µM | > 100 µM | > 100 µM | > 100 µM | > 100 µM | > 100 µM | > 100 µM | > 100 µM | > 100 µM | > 100 µM | – | – | – | – | – | – | – | – | –
2 | CC(C)N(c1cc2c(cc1F)c(=O)c(C(=O)O)cn2-c1ccc(N2CCN(C)CC2)cn1)C(C)C | – | > 100 µM | > 100 µM | > 100 µM | > 100 µM | – | > 100 µM | > 100 µM | > 100 µM | > 100 µM | > 100 µM | – | – | – | – | – | – | – | –
3 | COc1ccc(C(CC(=O)c2ccccc2)C(=O)c2ccc3c(c2)OCO3)cc1 (stereo not drawn) | > 100 µM | > 100 µM | > 100 µM | > 100 µM | > 100 µM | > 100 µM | > 100 µM | – | > 100 µM | > 100 µM | – | – | – | – | – | – | – | – | –
4 | COc1ccc(-n2cnc3c(NC(C)(C)C(=O)O)ncnc32)cc1 | > 100 µM | > 100 µM | > 100 µM | > 100 µM | > 100 µM | > 100 µM | – | > 100 µM | > 100 µM | > 100 µM | > 100 µM | – | – | – | – | – | – | – | –
5 | CCOn1cc(C2=C(c3c[nH]c4ccccc34)C(=O)NC2=O)c2ccccc21 | 20.3 µM | 0.198 µM | 0.735 µM | 25.1 µM | 19.5 µM | 16.4 µM | – | < 0.0182 µM | 22.7 µM | 15.4 µM | 38.8 µM | < 0.01 µM | 0.0322 µM | 23.2 µM | 0.062 µM | < 0.0385 µM | 0.488 µM | < 0.0117 µM | < 0.01 µM
6 | CN1CCC/C1=C1\C(=O)c2cccn2C1=O | > 100 µM | > 100 µM | > 100 µM | > 100 µM | > 100 µM | > 100 µM | > 100 µM | > 100 µM | > 100 µM | > 100 µM | – | – | – | – | – | – | – | – | –
7 | CC(Oc1ccc(Cl)cc1Cl)C(=O)NN1C(=O)CSC1c1ccc(Cl)cc1 (stereo not drawn) | > 100 µM | > 100 µM | > 100 µM | > 100 µM | > 100 µM | > 100 µM | – | > 100 µM | > 100 µM | > 100 µM | 66.3 µM | – | – | – | – | – | – | – | –
8 | COC(=O)c1c(C(=O)OC)c(C(c2ccccc2)c2ccccc2)n(-c2ccccc2)c1Cl | > 10 µM | > 10 µM | – | > 10 µM | > 10 µM | > 10 µM | > 10 µM | > 10 µM | > 10 µM | > 10 µM | > 10 µM | – | – | – | – | – | – | – | –
9 | Cc1ccc(S(=O)(=O)n2cnc(CC(NC(=O)C3CCC(=O)N3C(=O)OCc3ccccc3)C(=O)N3CCCC3C(=O)NN)c2)cc1 (stereo not drawn) | – | > 100 µM | – | – | > 100 µM | > 100 µM | > 100 µM | – | > 100 µM | > 100 µM | > 100 µM | – | – | – | – | – | – | – | –
10 | C[C@@H]1OC2(O)[C@@H]3CCCN3C(=O)N(Cc3ccccc3)N2C1=O (stereo partly drawn) | > 100 µM | > 100 µM | > 100 µM | > 100 µM | – | > 100 µM | > 100 µM | > 100 µM | > 100 µM | > 100 µM | > 100 µM | – | – | – | – | – | – | – | –
